Results as given in patent US9302999B2, “Substituted triazoles as herbicides” (E. I. DU PONT DE NEMOURS AND COMPANY, priority 2012, dated 2016).

Experiments:
Format in all cases: in vivo
[1] = test system: morningglory (Ipomoea spp.); assay: Test A pre-/postemergence: morningglory
In short: (§1)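 Rating scale 0–100 (100 = complete control), visual, ~10 days after application in the greenhouse. Applications: preemergence directed soil spray; postemergence at 1–2 leaves.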

[2] = test system: pigweed (Amaranthus retroflexus); assay: Test A pre-/postemergence: pigweed
In short: as §1

[3] = test system: barnyardgrass (Echinochloa crus-galli); assay: Test B flooded paddy: barnyardgrass; conditions: Flood, applied to paddy water at 2-leaf stage, visually evaluated after 13 to 15 days
In short: (§2)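 Two-leaf-stage plants, pots flooded (3 cm above soil) and treated through the water, which stayed at that depth. After 13–15 days in greenhouse conditions, visual assessment versus controls: 0 is no effect, 100 complete control, dash means no result.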

[4] = test system: crabgrass, large (large crabgrass, Digitaria sanguinalis); assay: Test A pre-/postemergence: crabgrass, large
In short: as §1

[5] = test system: corn (Zea mays); assay: Test A pre-/postemergence: corn
In short: as §1

[6] = test system: ducksalad (Heteranthera limosa); assay: Test B flooded paddy: ducksalad; conditions: Flood, applied to paddy water at 2-leaf stage, visually evaluated after 13 to 15 days
In short: as §2

[7] = test system: rice (Oryza sativa); assay: Test B flooded paddy: rice; conditions: Flood, applied to paddy water at 2-leaf stage, visually evaluated after 13 to 15 days
In short: as §2

[8] = test system: velvetleaf (Abutilon theophrasti); assay: Test A pre-/postemergence: velvetleaf
In short: as §1

[9] = test system: sedge, umbrella (small-flower umbrella sedge Cyperus difformis); assay: Test B flooded paddy: sedge, umbrella; conditions: Flood, applied to paddy water at 2-leaf stage, visually evaluated after 13 to 15 days
In short: as §2

[10] = test system: wheat (Triticum aestivum); assay: Test A pre-/postemergence: wheat
In short: as §1

[11] = test system: foxtail, giant (giant foxtail, Setaria faberii); assay: Test A pre-/postemergence: foxtail, giant
In short: as §1

[12] = test system: barnyardgrass (Echinochloa crus-galli); assay: Test A pre-/postemergence: barnyardgrass
In short: as §1

[13] = Postemergence, 125 g ai/ha, 0 to 100 scale, 0 is no effect, 100 is complete control
[14] = Postemergence, 500 g ai/ha, visual rating on 0 to 100 scale (0 no effect, 100 complete control), approximately ten days
[15] = Preemergence, 125 g ai/ha, 0 to 100 scale (0 no effect, 100 complete control)
[16] = Preemergence, 500 g ai/ha, 0 to 100 scale, 0 is no effect, 100 is complete control
[17] = Postemergence, 500 g ai/ha, 0 to 100 scale, 0 is no effect, 100 is complete control
[18] = Preemergence, 125 g ai/ha, 0 to 100 scale where 0 is no effect and 100 is complete control
[19] = Preemergence, 500 g ai/ha, 0 to 100 scale (0 no effect, 100 complete control)

## CSc1nn(-c2ccc(F)cc2)nc1Cc1ccnc(C(F)(F)F)c1 [Compound 27]
[1]; [13]
  Morningglory plant response rating: 40
[1]; [14]
  Morningglory plant response rating: 90
[1]; [15]
  Plant response rating, Morningglory: 0
[1]; [16]
  Plant response rating, Morningglory: 0
[2]; [13]
  Pigweed plant response rating: 90
[2]; [14]
  Pigweed plant response rating: 100
[2]; [15]
  Plant response rating, Pigweed: 0
[2]; [16]
  Plant response rating, Pigweed: 80
[3]; 250 g ai/ha
  Plant response rating, Barnyardgrass (0 to 100 scale, 0 is no effect, 100 is complete control): 20
[4]; [13]
  Crabgrass, Large plant response rating: 30
[4]; [14]
  Crabgrass, Large plant response rating: 40
[4]; [15]
  Plant response rating, Crabgrass, Large: 20
[4]; [16]
  Plant response rating, Crabgrass, Large: 40
[5]; [13]
  Corn plant response rating: 20
[5]; [14]
  Corn plant response rating: 20
[5]; [15]
  Plant response rating, Corn: 0
[5]; [16]
  Plant response rating, Corn: 0
[6]; 250 g ai/ha
  Plant response rating, Ducksalad (0 to 100 scale, 0 is no effect, 100 is complete control): 50
[7]; 250 g ai/ha
  Plant response rating, Rice (0 to 100 scale, 0 is no effect, 100 is complete control): 10
[8]; [13]
  Velvetleaf plant response rating: 40
[8]; [14]
  Velvetleaf plant response rating: 50
[8]; [15]
  Plant response rating, Velvetleaf: 0
[8]; [16]
  Plant response rating, Velvetleaf: 0
[9]; 250 g ai/ha
  Plant response rating, Sedge, Umbrella (0 to 100 scale, 0 is no effect, 100 is complete control): 20
[10]; [13]
  Wheat plant response rating: 20
[10]; [14]
  Wheat plant response rating: 40
[10]; [15]
  Plant response rating, Wheat: 0
[10]; [16]
  Plant response rating, Wheat: 0
[11]; [13]
  Foxtail, Giant plant response rating: 30
[11]; [14]
  Foxtail, Giant plant response rating: 40
[11]; [15]
  Plant response rating, Foxtail, Giant: 10
[11]; [16]
  Plant response rating, Foxtail, Giant: 80
[12]; [13]
  Barnyardgrass plant response rating: 0
[12]; [14]
  Barnyardgrass plant response rating: 20
[12]; [15]
  Plant response rating, Barnyardgrass: 0
[12]; [16]
  Plant response rating, Barnyardgrass: 10

## CC(C)(C)c1nn(-c2ccc(F)cc2)nc1Cc1ccnc(C(F)(F)F)c1 [Compound 176]
[1]; [13]
  Plant response rating, Morningglory: 0
[1]; [17]
  Morningglory plant response rating: 0
[1]; [18]
  Plant response rating, Morningglory: 0
[1]; [19]
  Plant response rating, Morningglory: 0
[2]; [13]
  Plant response rating, Pigweed: 0
[2]; [17]
  Pigweed plant response rating: 0
[2]; [18]
  Plant response rating, Pigweed: 0
[2]; [19]
  Plant response rating, Pigweed: 0
[3]; 125 g ai/ha
  Plant response rating, Barnyardgrass (0 to 100 scale, 0 is no effect, 100 is complete control): 0
[4]; [13]
  Plant response rating, Crabgrass, Large: 0
[4]; [17]
  Crabgrass, Large plant response rating: 0
[4]; [18]
  Plant response rating, Crabgrass, Large: 0
[4]; [19]
  Plant response rating, Crabgrass, Large: 0
[5]; [13]
  Plant response rating, Corn: 0
[5]; [17]
  Corn plant response rating: 0
[5]; [18]
  Plant response rating, Corn: 0
[5]; [19]
  Plant response rating, Corn: 0
[6]; 125 g ai/ha
  Plant response rating, Ducksalad (0 to 100 scale, 0 is no effect, 100 is complete control): 0
[7]; 125 g ai/ha
  Plant response rating, Rice (0 to 100 scale, 0 is no effect, 100 is complete control): 0
[8]; [13]
  Plant response rating, Velvetleaf: 0
[8]; [17]
  Velvetleaf plant response rating: 0
[8]; [18]
  Plant response rating, Velvetleaf: 0
[8]; [19]
  Plant response rating, Velvetleaf: 0
[9]; 125 g ai/ha
  Plant response rating, Sedge, Umbrella (0 to 100 scale, 0 is no effect, 100 is complete control): 0
[10]; [13]
  Plant response rating, Wheat: 0
[10]; [17]
  Wheat plant response rating: 0
[10]; [18]
  Plant response rating, Wheat: 0
[10]; [19]
  Plant response rating, Wheat: 0
[11]; [13]
  Plant response rating, Foxtail, Giant: 0
[11]; [17]
  Foxtail, Giant plant response rating: 0
[11]; [18]
  Plant response rating, Foxtail, Giant: 0
[11]; [19]
  Plant response rating, Foxtail, Giant: 0
[12]; [13]
  Plant response rating, Barnyardgrass: 0
[12]; [17]
  Barnyardgrass plant response rating: 0
[12]; [18]
  Plant response rating, Barnyardgrass: 0
[12]; [19]
  Plant response rating, Barnyardgrass: 0

## Cc1nn(-c2ccc(F)c(F)c2)nc1Cc1ccnc(C(F)(F)F)c1 [Compound 55]
[1]; [15]
  Plant response rating, Morningglory: 50
[1]; [16]
  Plant response rating, Morningglory: 80
[2]; [13]
  Pigweed plant response rating: 100
[2]; [14]
  Pigweed plant response rating: 100
[2]; [15]
  Plant response rating, Pigweed: 100
[2]; [16]
  Plant response rating, Pigweed: 100
[3]; 250 g ai/ha
  Plant response rating, Barnyardgrass (0 to 100 scale, 0 is no effect, 100 is complete control): 70
[4]; [13]
  Crabgrass, Large plant response rating: 80
[4]; [14]
  Crabgrass, Large plant response rating: 90
[4]; [15]
  Plant response rating, Crabgrass, Large: 100
[4]; [16]
  Plant response rating, Crabgrass, Large: 100
[5]; [13]
  Corn plant response rating: 20
[5]; [14]
  Corn plant response rating: 50
[5]; [15]
  Plant response rating, Corn: 20
[5]; [16]
  Plant response rating, Corn: 50
[6]; 250 g ai/ha
  Plant response rating, Ducksalad (0 to 100 scale, 0 is no effect, 100 is complete control): 100
[7]; 250 g ai/ha
  Plant response rating, Rice (0 to 100 scale, 0 is no effect, 100 is complete control): 60
[8]; [13]
  Velvetleaf plant response rating: 100
[8]; [14]
  Velvetleaf plant response rating: 100
[8]; [15]
  Plant response rating, Velvetleaf: 40
[8]; [16]
  Plant response rating, Velvetleaf: 70
[9]; 250 g ai/ha
  Plant response rating, Sedge, Umbrella (0 to 100 scale, 0 is no effect, 100 is complete control): 100
[10]; [13]
  Wheat plant response rating: 20
[10]; [14]
  Wheat plant response rating: 40
[10]; [15]
  Plant response rating, Wheat: 10
[10]; [16]
  Plant response rating, Wheat: 40
[11]; [13]
  Foxtail, Giant plant response rating: 90
[11]; [14]
  Foxtail, Giant plant response rating: 90
[11]; [15]
  Plant response rating, Foxtail, Giant: 100
[11]; [16]
  Plant response rating, Foxtail, Giant: 100
[12]; [13]
  Barnyardgrass plant response rating: 90
[12]; [14]
  Barnyardgrass plant response rating: 90
[12]; [15]
  Plant response rating, Barnyardgrass: 90
[12]; [16]
  Plant response rating, Barnyardgrass: 100
